PubChem BioAssay (NCI)
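Each compound was tested at five concentrations against cells in 96-well plates for 48 hours. Here, GI50 denotes the concentration required for 50% inhibition of growth. Definition used: TGI = concentration required for complete inhibition of growth.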 Where a SMILES comes first, the peptide text is derived from it. [ ]: non-standard residue; d: D form. The star is where a group is joined. ξ: configuration not given here. Propanoyl(3-(4-MeO-Ph)) = COc1ccc(CCC(=O)*)cc1; Thr(3ξ) = CC(O)[C@H](N)C(=O)O; dNMeL = CN[C@H](CC(C)C)C(=O)O; Boc = CC(C)(C)OC(=O)*; OBn = c1ccc(CO*)cc1; ξLac = CC(O)C(=O)O

Columns and labels:
Experiment in all cases: NCI-60 cell line screen, 48 h
SK-MEL-28 melanoma = test system: SK-MEL-28 melanoma
RXF 393 renal = test system: RXF 393 renal
RPMI-8226 leukemia = test system: RPMI-8226 leukemia
HCT-15 colon = test system: HCT-15 colon
HL-60(TB) leukemia = test system: HL-60(TB) leukemia
SF-539 CNS = test system: SF-539 CNS
NCI/ADR-RES ovarian = test system: NCI/ADR-RES ovarian
MDA-MB-231 breast = test system: MDA-MB-231 breast
A549 NSCLC = test system: A549 NSCLC

Compound	TGI (SK-MEL-28 melanoma) [µM]	TGI (RXF 393 renal) [µM]	TGI (RPMI-8226 leukemia) [µM]	TGI (HCT-15 colon) [µM]	TGI (HL-60(TB) leukemia) [µM]	TGI (SF-539 CNS) [µM]	TGI (NCI/ADR-RES ovarian) [µM]	TGI (MDA-MB-231 breast) [µM]	TGI (A549 NSCLC) [µM]	GI50 (SK-MEL-28 melanoma) [µM]	GI50 (RXF 393 renal) [µM]	GI50 (RPMI-8226 leukemia) [µM]	GI50 (HCT-15 colon) [µM]	GI50 (A549 NSCLC) [µM]	GI50 (HL-60(TB) leukemia) [µM]	GI50 (SF-539 CNS) [µM]	GI50 (NCI/ADR-RES ovarian) [µM]	GI50 (MDA-MB-231 breast) [µM]
S=C(c1c[nH]c2ccccc12)N1CCN(c2ccccc2)CC1	> 100	> 100	> 100	> 100	> 100	> 100	> 100	> 100										
CC1(C)C[C@H](O)[C@H](O)[C@]23C(=O)O[C@H](O)[C@H]2C(C=O)=CC[C@@H]13	> 100	> 100	> 100	> 100	> 100	> 100	> 100	> 100	> 100									
CCOCC(NC(=O)C(CC(C)C)NC(=O)OC(C)(C)C)C(N)=O (stereo not drawn) (Boc-Leu-Ser(Et)-NH2; configuration not given here)	2.84	> 100		> 100	> 100	> 100	> 100	> 100	> 100									
O=C(N/N=C\c1ccc([N+](=O)[O-])cc1)c1ccccc1Nc1ccccc1C(=O)N/N=C/c1ccc([N+](=O)[O-])cc1	> 100	> 100	> 100	> 100	> 100		> 100	95.1	> 100									
Cc1ccc(S(=O)(=O)/N=C(\[O-])C2=C(c3ccccc3)NN(C)c3nc4cccc[n+]4nc32)cc1	> 100	> 100	> 100	> 100	> 100	> 100	> 100	> 100	> 100									
CC(C)(C)OC(=O)NC(Cc1ccc(OCc2ccccc2)cn1)C(=O)N1CCSCC1 (centres undefined)	> 100	88.5	59.1	> 100	81.1	> 100	94.5	> 100	> 100									
CCCC#CC(O)(C(=O)OC1CCN(C)CC1)C1CCCCC1 (centres undefined)	> 100	> 100	> 100	> 100		> 100	> 100	> 100	> 100									
NC12CC3CC4C1CC1CC2C(C3)C4(N)C1	> 100	> 100		> 100	> 100		> 100	> 100	> 100									
COc1ccc(N=C2C(=Nc3ccc(OC)cc3)N(S(=O)(=O)c3ccccc3)C(=S)N2c2ccc(OC)cc2)cc1	> 100	> 100	> 100	> 100		> 100	> 100	92.1	> 100									
CN(C)CCNC1=CC(=O)c2c(O)ccc(O)c2C1=O	26.3	31.4	> 68.2	> 40.8	6.53	20.6	7.78	25	27.3									
Cc1ccc(Nc2sc(C)cc2C#N)c([N+](=O)[O-])c1	> 100	> 100	> 100	> 100		> 100	> 100	> 100	> 100									
CC12CC3(O)OC(O1)C1(COC(=O)c4ccccc4)C3CC21OC1OC(CO)C(O)C(O)C1O (centres undefined)	> 100	> 100	> 100	> 100	> 100	> 100	> 100	> 100	> 100									
O=c1[nH]c2ccc(CC(=S)N3CCN(c4ccccc4)CC3)cc2o1	> 100	> 100	> 100	> 100	> 100	> 100	> 100	> 100	> 100									
O=C(/C=C\Nc1ccccc1O)C(Cl)(Cl)Cl	> 100	> 100	> 100	> 100	> 100	> 100	> 100	> 100	> 100									
Cn1c2ccccc2n2c(=O)c3cccnc3c(C#N)c12	> 100	> 100	> 100	> 100		> 100	> 100	> 100										
COc1cc(C2SCC(=O)N2c2ccc(Cl)cc2)cc(I)c1O (centres undefined)	> 100	> 100	> 100	> 100	> 100	> 100	> 100	> 100	> 100									
COc1ccccc1N=N/C(=N/NC(=O)c1ccc(C)cc1)c1ccc(N(CCC#N)CCC#N)cc1OC	> 100	> 100	33.5	> 100	26.5		> 100	79.4	> 100									
O=C(/C=C/c1cccs1)c1cccc(C(=O)/C=C/c2cccs2)n1	> 100	> 86.9	16	> 100	43	21.5	> 100	> 100	> 100									
O=c1c(-c2ccccc2Cl)coc2cc(F)ccc12	> 100	> 100		> 100	31.2	31.6	46.7	67.3	> 100									
CC1=C(C(=O)Nc2ccccc2)C(c2ccc(C)o2)C(C#N)=C(SCc2ccccc2)N1 (centres undefined)	> 100	> 100	> 100	> 100	> 100	> 100	> 100	> 100	> 100									
Cc1ccc2cccc3c2c1CC1(C3=O)S(=O)(=O)OCCOS1(=O)=O	> 100	> 100	> 100	> 100	> 100	> 100	> 100	> 100	> 100									
COc1ccc(CCC(=O)OC(C)[C@H](NC(=O)[C@@H](CC(C)C)N(C)C(=O)[C@@H]2CCCN2C(=O)C(C)O)C(=O)OCc2ccccc2)cc1 (some centres undefined) (H-[ξLac]P[dNMeL][Thr(3ξ)](Propanoyl(3-(4-MeO-Ph)))-OBn)	32.9	44.7	80.6	> 100	72.6	46.2	> 100	46.5	> 100									
OCCN=C1c2ccccc2C2C(c3ccccc31)C1c3ccccc3C(=NCCO)c3ccccc3C21 (centres undefined)	36.4	51.8	37.2	63.9	47.2	36.5	72.6	31.4	93									

Compound	TGI (SK-MEL-28 melanoma) [µM]	TGI (RXF 393 renal) [µM]	TGI (RPMI-8226 leukemia) [µM]	TGI (HCT-15 colon) [µM]	TGI (HL-60(TB) leukemia) [µM]	TGI (SF-539 CNS) [µM]	TGI (NCI/ADR-RES ovarian) [µM]	TGI (MDA-MB-231 breast) [µM]	TGI (A549 NSCLC) [µM]	GI50 (SK-MEL-28 melanoma) [µM]	GI50 (RXF 393 renal) [µM]	GI50 (RPMI-8226 leukemia) [µM]	GI50 (HCT-15 colon) [µM]	GI50 (A549 NSCLC) [µM]	GI50 (HL-60(TB) leukemia) [µM]	GI50 (SF-539 CNS) [µM]	GI50 (NCI/ADR-RES ovarian) [µM]	GI50 (MDA-MB-231 breast) [µM]
Nc1nc(N)c2nnn(C[C@H]3CC[C@@H](CO)C3)c2n1	> 100	> 100	> 100	> 100	> 100	> 100	> 100	> 100	> 100									
C/C(=N\O)c1cccc(Nc2nc3ccccc3c3occc23)c1	29.2	21	31.8	22.4	61.1	29.6	29.7	26.4	32.5									
Clc1ccc2c(NCCNc3ccnc4cc(Cl)ccc34)ccnc2c1	32.5	36.1	42	31	31	25.3	> 100	32.2	35.6									
CC(NC(=O)C(N)CC(=O)O)NC(=O)N1CCOCC1 (centres undefined)	> 100	> 100	> 100	> 100		> 100	> 100	> 100	> 100									
O=C1OC(C2OC(=O)c3cc(O)c(O)c(O)c3-c3c(O)c(O)c4oc(=O)c5c(c(O)c(O)c6oc(=O)c3c4c65)-c3c(cc(O)c(O)c3O)C(=O)OCC2O)C2OC(=O)c3c(c(O)c(O)c(O)c3[C@H]2O)-c2c1cc(O)c(O)c2O (some centres undefined)	> 100	73.5	76.9	33.3	38.8		73.5	33.7	> 100									
COc1ccc(CCc2ccc(O)c(C(=O)O)c2)cc1OC	> 100	> 100	> 100	> 100	> 100	> 100	> 100	> 100	> 100									
CCn1c(-c2ccc(C)cc2)cs/c1=N\C(P(=O)(O)O)P(=O)(O)O	> 100	> 100	> 100	> 100	> 100	> 100	> 100	> 100	> 100									
O=S(=O)(O)c1ccc2c(N=Nc3ccccc3Cl)c(O)ccc2c1	> 100	> 100	> 100	> 100			> 100	> 100	> 100									
CSc1ccc(/C=C2\N=C(c3ccccc3)N(c3nc4c(Cl)cc(Cl)cc4s3)C2=O)cc1	> 100	67.5	> 100	> 100	69.7	> 100	68.2	62.5	53.4									
O=C(N/N=C\c1ccc([N+](=O)[O-])cc1)Nc1cccc2ccccc12	> 100	34.5	> 100	> 100	> 31.6	33	> 100	33.7	> 100									
CC1(C)C(=O)C2(OS(=O)(=O)C(F)(F)F)CCC1C2 (centres undefined)	> 100	> 100	> 100	> 100	> 100	> 100	> 100	> 100	> 100									
NCCCc1c(-c2ccccc2)nc(N)[nH]c1=O	> 100	> 100	> 100	> 100	> 100	> 100	> 100	> 100	> 100									
COc1ccc(CCCC(=O)O)c(C)c1	> 100	> 100		> 100	> 100		> 100	> 100	> 100									
CN(C)CCNC(=O)c1ccc(NCCCN(C)CCCNc2ccc(C(=O)NCCN(C)C)c3[nH]c4ccc([N+](=O)[O-])cc4c(=O)c23)c2c(=O)c3cc([N+](=O)[O-])ccc3[nH]c12	1.06	0.351	0.151	1.8	1.01		3.58	0.34	0.64									
Oc1ccc2ccccc2c1N=Nc1ccccn1	> 100	> 100	> 100	> 100	3.23	> 28.4	4.64	> 100	> 59.3	2.8	3.44	1.98	0.497	2.95	0.469	1.6	0.575	0.468
N#CC(N=Nc1ccccc1)c1nc2ccccc2o1 (centres undefined)	> 100	61.4	> 100	> 100	> 100	28.8	64	57.4	> 100									
COc1ccc(C2SCC(=O)N2NC(=O)C(C)Oc2ccccc2Cl)cc1 (centres undefined)	> 100	> 100	> 100	> 100	35.2	> 100	> 100	> 100	> 100									
CC1(C)N=C(/C=N/O)C(C)(C)N1O	> 100	> 100	> 100	> 100	> 100	> 100	> 100	> 100	> 100									
CSc1nc(O)c(/C=C2\C=Nc3ccccc32)[nH]1	> 100	> 100	> 100	> 100	94.1	> 100	> 100	> 100	> 100									
Cc1ccc(/C=N/NC2=NCCN2)s1	> 100	> 100	> 100	> 100	> 100	> 100	> 100	> 100	> 100									
COC1(OC)C2(Cl)C(Cl)=C(Cl)C1(Cl)C1COCC12 (centres undefined)	> 55.4	> 100	> 100	> 100	> 100	> 100	> 100	> 100	> 100									
CCc1n[nH]c(=O)n1NC(=O)c1ccccc1C(=O)O	> 100	> 100	> 100	> 100		> 100	> 100	> 100	> 100									
